Data set [1] concerns HT 1080 cells. Nature of the data set: Cancer cell survival rate test (MTT). Type of data set: cell-based, Human. Conditions: different concentrations, 24 hours. As to the method: 3. Cancer Cell Survival Rate Test (Lambert et al., 1997; Yang et al., 2006)
A medium in a culturing plate containing cells grown covering the whole bottom of the culturing plate, was removed. The cells were washed with 10 ml of PBS, and then suspended and mixed well with 10 ml of medium (a part of the cells need to be suspended with Trypsin-EDTA buffer). The numbers of the cells were calculated by a hemocytometer, and the cells were diluted to an appropriate cell concentration and added into the wells of a 24 well culturing plate by an amount of 500 μl/well. The 24 well culturing plates were placed in an incubator at 37° C. in a humidified atmosphere containing 5% CO2. After the cells were attached onto the bottom of the wells, the medium in each well was removed, and fresh mediums with different concentrations of a test drug were added into wells, respectively (if the cells were suspension cells, the fresh medium may be added into the wells, directly). Then, the 24 well culturing plates were placed in an incubator at 37° C. in a humidified atmosphere containing 5% CO2 for 24 hours. After that, an upper medium in each well was removed. The cells were washed with a PBS buffer twice, and then an MTT solution which was prepared with a medium was added to each well. […] After that, an ELISA reader was used to determine the absorbance for each well at 600 nm.

The test system of data set [2] is matrix metalloproteinase-9. In words: Gelatin gel zymography of PMA-induced HT 1080 cells, MMP-9 activity. Type of data set: cell-based, Human. The procedure:
4. Gelatin Gel Zymography (Shim et al., 2003; Park et al., 2005; Hwang et al., 2006)
HT 1080 cells with appropriate cell numbers were cultured in 60 mm culturing plates for 12 hours, respectively. After the cells were attached onto the bottom of the plate and formed a monolayer, the medium in the plate was removed. Fresh serum free mediums with different concentrations of a test sample were added to the plates, respectively, and 100 nM PMA was added to each plate to induce the cells to express great quantities of matrix metalloproteinase-2 and matrix metalloproteinase-9, and the plates were placed in a temperature of 37° C. for 24 hours. After centrifugation, each cultured supernatant were saved and mixed with SDS-sample buffer under the same protein contents which were then injected into a 10% SDS-polyacrylamide gel (containing 1 mg/ml gelatin) and then electrophoresed. After the electrophoresis was completed, the gel was taken out and washed with 20 mM Tris-HCl containing 25% isopropanol three times; 10 minutes per time. Then the gel was equilibrated with 20 mM Tris-HCl for 30 minutes, and finally an incubate buffer (5 mM CaCl2 and 1 mM ZnCl2) was added to the gel and reacted with the gel overnight. Then the gel was stained with coomassie blue, and positions having matrix metalloproteinase activity of the gel presented a white color.

Data set [3] deals with matrix metalloproteinase-2. Nature of the data set: RT-PCR, MMP-2 gene expression in HT 1080 cells. Type of data set: cell-based, Human. The procedure:
(§1) 7. RNA Extraction and Reverse Transcription-Polymerase Chain Reaction (RT-PCR)
(§2) HT 1080 cells with appropriate cell numbers were cultured in 60 mm culturing plates for 6 hours, respectively. After the cells were attached onto the bottom of the plate and formed a monolayer, the medium in the plate was removed. Fresh serum free mediums with different concentrations of a test sample were added to the plates, respectively, and 100 nM PMA was added to each plate to induce the cells to express great quantities of matrix metalloproteinase-2 and matrix metalloproteinase-9, and the plates were placed in a temperature of 37° C. for 6 hours. After that, the total RNA of the cells were extracted with the TRIzol reagent and reverse transcripted by a reverse transcriptase to synthesize cDNA. The synthesize cDNA was used as a template to perform GADPH, matrix metalloproteinase-2 and matrix metalloproteinase-9 PCR amplifications.

For data set [4], the system named is matrix metalloproteinase-9. In words: RT-PCR, MMP-9 gene expression in HT 1080 cells. Type of data set: cell-based, Human. As to the method:
as §1, §2

The subject of data set [5] is HT 1080 cells. Nature of the data set: Invasion assay (Matrigel transwell). It counts as cell-based, Human. The procedure:
10. Invasion Assay (Lee et al., 2005; Huang et al., 2005; Park et al., 2005)
HT 1080 cells were used to prepare a cell suspension with an appropriate concentration by a fresh serum free medium and than placed in each upper chamber of each transwell (BD Matrigel™ Invasion Chamber 24-Well Plate 8.0 Micron). Fresh serum containing mediums with different concentrations of a test drug were added to the lower chambers of the transwells, respectively. The transwells were placed in an incubator containing 5% CO2 at 37° C. for 18 hours. After that, the medium in the upper chamber was removed and cells on the upper surface of the membrane of the transwell were wiped by a cotton swab. Finally, the cells were fixed and stained. The calculation for the invasion rate of the cells was:
Ne: Numbers of cells crossing the membrane Nc: Numbers of total cells

Data set [6] has as its system B16-F10 cell line. Nature of the data set: Tumor metastasis in an animal model (lung metastasis induced by B16-F10). Type of data set: in vivo, C57BL/6 mice. Conditions: mice, 50 mg/kg/day, 21 days. The procedure: 12. Tumor Metastasis in an Animal Model (Itoh et al., 2005; Lee et al., 2005; Ouyang et al., 2005; Zhang et al., 2005)
Experimental animal: C57BL/6, gray-brown fur
C57BL/6 mice were injected with 2×10^5 cells/0.1 ml of a B16-F10 cell line by a tail intravenous injection. Then, on the next day the mice were injected with a physiological saline solution or 50 mg/kg drug, daily, for 3 weeks. The mice were sacrificed and their lungs were removed at the third week. The lungs were washed with a PBS buffer and fixed with Bouin's solution.

Data set [7] deals with human umbilical vein endothelial cells. Nature of the data set: Cell viability assay of human umbilical vein endothelial cells. Type of data set: cell-based. The settings on record: 24 hours. As to the method: A medium in a culturing plate containing cells grown covering the whole bottom of the culturing plate, was removed. The cells were washed with 10 ml of PBS, and then suspended and mixed well with 10 ml of medium (a part of the cells need to be suspended with Trypsin-EDTA buffer). The numbers of the cells were calculated by a hemocytometer, and the cells were diluted to an appropriate cell concentration and added into the wells of a 24 well culturing plate by an amount of 500 μl/well. The 24 well culturing plates were placed in an incubator at 37° C. in a humidified atmosphere containing 5% CO2. After the cells were attached onto the bottom of the wells, the medium in each well was removed, and fresh mediums with different concentrations of a test drug were added into wells, respectively (if the cells were suspension cells, the fresh medium may be added into the wells, directly). Then, the 24 well culturing plates were placed in an incubator at 37° C. in a humidified atmosphere containing 5% CO2 for 24 hours. After that, an upper medium in each well was removed. The cells were washed with a PBS buffer twice, and then an MTT solution which was prepared with a medium was added to each well. After the 24 well culturing plates were placed in an incubator at 37° C. for reacting 4-6 hours, an upper medium in each well was removed, and 100 μl of DMSO was added to each well to solubilize the formazan precipitates. After that, an ELISA reader was used to determine the absorbance for each well at 600 nm.
After human umbilical vein endothelial cells were treated with the different concentrations of L-Aspartic acid β-hydroxamate (CH) and different concentrations of L-Glutamic acid γ-hydroxamate (DH) for 24 hours, respectively, the cell viability assays were performed to the treated human umbilical vein endothelial cells and the angiogenesis conditions of the human umbilical vein endothelial cells were recorded. The results of the cell viability assays are shown as FIGS. 13 (A) and 14 (A). Photographs for the human umbilical vein endothelial cells treated with L-Aspartic acid β-hydroxamate (CH) and human umbilical vein endothelial cells treated with L-Glutamic acid γ-hydroxamate (DH) are shown as FIGS. 13 (B) and 14 (B), respectively.

Setting [8] is: about 0.1-2 mM, stated as embodiment, 'and/or' MMP-2.
Where [9] appears, read: HT 1080 cells, 0.4, 0.8, 1.2, and 1.6, 6 hours, RT-PCR.

With `NC(CCC(=O)NO)C(=O)O` [DH, L-Glutamic acid γ-hydroxamate], the “cytotoxicity to HT 1080 cells” value in data set [1] is “no significant cytotoxicity”. For the same compound, in data set [2] (0.4, 0.8, 1.2, and 1.6, 24 hours), the “protein activity of matrix metalloproteinase-9 secreted out of and left in HT 1080 cells” value was “also decreased”. For the same compound, the “inhibition rate to the activity of matrix metalloproteinase-9” value in data set [2] (HT 1080 cells treated 24 hours) is reported as “greater than 50%”. The “matrix metalloproteinase-9 inhibiting activity” value in data set [2] (HT 1080 cells, 0.4, 0.8, 1.2 and 1.6 mM, 24 hours) is listed as “increased while the concentration thereof was increased”. Moreover, in data set [2] (setting [8]), the “inhibition rate to the protein activity of matrix metalloproteinase-9 of a cancer cell” value is on record as 40-70%. Besides, the “gene expression (mRNA) of matrix metalloproteinase-2” value in data set [3] (setting [9]) is reported as “decreased”. In data set [3] (about 0.1-2 mM, stated as embodiment, 'and/or' MMP-9), the “inhibition rate to the gene transcriptional expression of metalloproteinase-2 of a cancer cell” value is reported as 20-80%. Moreover, the “gene expression (mRNA) of matrix metalloproteinase-9” value in data set [4] (setting [9]) was “decreased”. Further, in data set [4] (setting [8]), the “inhibition rate to the gene transcriptional expression of matrix metalloproteinase-9 of a cancer cell” value is listed as 20-80%. For the same compound, in data set [5] (Homo sapiens, HT-1080, 0.8, 1.6 and 2.4 mM, 18 hours, read-out: IC50 HT 1080 crossing membrane to the lower chamber (invasion)), the half-inhibitory concentration (IC50) (commonly the concentration needed to halve the response being measured) worked out at 1.26 mM. Further, in data set [5] (about 0.1-3 mM, stated as embodiment), the “inhibition rate to cancer cell invasion” value was 40-85%. Moreover, in data set [6], the “lung metastasis and amount of metastasized pulmonary nodules” value was “significantly decreased”; the lung weight result is “recovered to a level similar to that of the control group”; the “pathological symptoms (fur picking, weight loss, hind limb debility) due to cancer metastasis, compared to blank group” value is on record as “decreased”. Further, the “survival till the end of the experiment” value in data set [6] (blank group 2 of 6 survived) is recorded as “six mice all survived”. Besides, the “cytotoxicity to human umbilical vein endothelial cells” value in data set [7] (0.25 mM) was “no cytotoxicity”. Also, in data set [7] (0.75 mM), the “viability of human umbilical vein endothelial cells” value is on record as “slight decreases”.
